According to a compilation of properties of binary mixtures (doi:10.1016/j.molliq.2018.12.032):

Experiment: xn = mol fraction of the nth substance listed
Settings: 101 kPa

C[P+](c1ccccc1)(c1ccccc1)c1ccccc1.[Br-] + OCCO
x1 = 0.25
Settings | electrical conductivity [S/m] | viscosity [mPa·s]
293.15 K | 0.119 | 211
303.15 K | 0.153 | 136
313.15 K | 0.192 | 89.5
323.15 K | 0.238 | 60.6
333.15 K | 0.291 | 42
343.15 K | 0.352 | 29.7
353.15 K | 0.422 | 21.5

[Cl-].c1ccc(C[P+](c2ccccc2)(c2ccccc2)c2ccccc2)cc1 + OCCO
x1 = 0.083
Settings | electrical conductivity [S/m] | viscosity [mPa·s]
303.15 K | 0.241 | 43.7
323.15 K | 0.365 | 24.2
333.15 K | 0.441 | 18.4
343.15 K | 0.527 | 14.3
353.15 K | 0.623 | 11.3

C[P+](c1ccccc1)(c1ccccc1)c1ccccc1.[Br-] + OCCOCCO
x2 = 0.8
Settings | electrical conductivity [S/m] | viscosity [mPa·s]
293.15 K | 0.0618 | 141
303.15 K | 0.0986 | 103
313.15 K | 0.132 | 60.6
323.15 K | 0.18 | 38.7
333.15 K | 0.258 | 27
343.15 K | 0.294 | 20.4
353.15 K | 0.337 | 18.3

[Cl-].c1ccc(C[P+](c2ccccc2)(c2ccccc2)c2ccccc2)cc1 + OCCOCCO
x2 = 0.875
Settings | electrical conductivity [S/m] | viscosity [mPa·s]
293.15 K | 0.0466 | –
303.15 K | 0.0706 | 102
323.15 K | 0.116 | 42.3
333.15 K | 0.147 | 30
343.15 K | 0.158 | 22.8
